The target in assay [1] is T1, fusion protein Tel/PDGF-Rβ (BaF3 Tel/PDGF cells) (Homo sapiens, UniProt P09619).
T1 construct: the transmembrane and intracellular part of the PDGF-Rβ receptor; N-terminal part of the Tel transcription factor (ETV6); expressed in transfected cells; host or cells: murine haematopoietic cell line BaF/3; the other entry of the earlier key: ETV6 (P41212, Transcription factor ETV6)
As to the kind of experiment: Inhibition of PDGF-Rβ tyrosine kinase activity: proliferation of BaF3 Tel/PDGF cells (CellTiter-Glo, 72 h). The settings on record: 72 hours incubation, read-out: IC50 (concentration that inhibits 50% of the proliferation of the BaF3 Tel/PDGF cells). Format: cell-based, murine.

Assay [2] has as its target T2, FLT3 receptor (MV4-11 cell line bearing an FLT3ITD mutant) (Homo sapiens, UniProt P36888, INS600HVDFREYEYD).
T2 construct: MV4-11 cell line, which line is established from a leukaemia of constitutively active AML type bearing an FLT3ITD mutant; endogenous in cells; host or cells: MV4-11
T2 sequence (P36888 with tags, fused parts or gaps INS600HVDFREYEYD): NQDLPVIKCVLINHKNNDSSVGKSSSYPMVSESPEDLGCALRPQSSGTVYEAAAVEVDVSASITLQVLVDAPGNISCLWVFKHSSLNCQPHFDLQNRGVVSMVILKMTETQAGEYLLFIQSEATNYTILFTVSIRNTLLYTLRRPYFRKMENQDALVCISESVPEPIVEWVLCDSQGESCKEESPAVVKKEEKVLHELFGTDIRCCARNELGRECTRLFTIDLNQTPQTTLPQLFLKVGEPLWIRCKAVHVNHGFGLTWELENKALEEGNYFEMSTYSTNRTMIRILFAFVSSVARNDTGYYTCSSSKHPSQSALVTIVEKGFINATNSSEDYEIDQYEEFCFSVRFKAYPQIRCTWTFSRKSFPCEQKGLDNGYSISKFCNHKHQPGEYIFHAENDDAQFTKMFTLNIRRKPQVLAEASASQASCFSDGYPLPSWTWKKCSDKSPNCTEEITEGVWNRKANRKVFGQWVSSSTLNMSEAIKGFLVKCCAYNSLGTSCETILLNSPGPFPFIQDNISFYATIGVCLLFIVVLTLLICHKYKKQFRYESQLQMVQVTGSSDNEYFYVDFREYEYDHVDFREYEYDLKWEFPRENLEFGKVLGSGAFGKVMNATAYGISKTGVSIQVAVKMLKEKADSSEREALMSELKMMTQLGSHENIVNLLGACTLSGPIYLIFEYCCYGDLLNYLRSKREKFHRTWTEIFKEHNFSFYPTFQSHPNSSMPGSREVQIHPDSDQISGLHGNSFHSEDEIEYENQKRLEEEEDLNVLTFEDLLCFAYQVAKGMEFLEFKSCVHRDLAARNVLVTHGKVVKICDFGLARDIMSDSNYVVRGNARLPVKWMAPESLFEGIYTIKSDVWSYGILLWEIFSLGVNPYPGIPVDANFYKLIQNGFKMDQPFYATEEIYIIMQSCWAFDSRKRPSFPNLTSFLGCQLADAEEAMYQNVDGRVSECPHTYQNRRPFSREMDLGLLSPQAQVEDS
Briefly: Inhibition of FLT3 receptor tyrosine kinase activity: proliferation of MV4-11 cells (CellTiter-Glo, 72 h). Format: cell-based. The settings on record: 72 hours incubation, read-out: IC50 (concentration that inhibits 50% of the proliferation of the MV4-11 cells). The protocol:
Measurement of Inhibition of the Tyrosine Kinase Activity of the FLT3 Receptor
The inhibitory effect of the compounds according to the invention towards the tyrosine kinase activity of the FLT3 receptor was evaluated on an MV4-11 cell line, which line is established from a leukaemia of constitutively active AML type bearing an FLT3ITD mutant. The inhibitory activity is correlated to the inhibition of cell growth, according to the protocols described by Spiekermann, K. et al., Blood, 2003, 101, (4) 1494-1504 and O'Farrell, A.-M. et al., Blood, 2003, 101, (9) 3597-3605.
MV4-11 cells are washed with PBS buffer and inoculated in 96-well plates, at a density of 1×10^5 cells/ml (100 μL per well), in RPMI 1640 containing 10% FCS, in the presence or absence of the test compounds. After incubation for 72 hours, the viable cells are quantified by measuring the cellular ATP by means of the CellTiter-Glo® kit (Promega, Cat G7571). The cells are treated according to the instructions given by the kit manufacturer, and the luminescence is measured using a Luminoskan (Ascent, Labsystem) with the following parameters: measurement: single; integration time: 1000 ms, lag time: 5 s.
The inhibitory activity with respect to the FLT3 receptor is given by the concentration that inhibits 50% of the proliferation of the MV4-11 cells.
Background: Cellular ATP, detected with luciferase, serves as a proxy for viable cell number.

T1 sequence (P09619 with tags, fused parts or gaps): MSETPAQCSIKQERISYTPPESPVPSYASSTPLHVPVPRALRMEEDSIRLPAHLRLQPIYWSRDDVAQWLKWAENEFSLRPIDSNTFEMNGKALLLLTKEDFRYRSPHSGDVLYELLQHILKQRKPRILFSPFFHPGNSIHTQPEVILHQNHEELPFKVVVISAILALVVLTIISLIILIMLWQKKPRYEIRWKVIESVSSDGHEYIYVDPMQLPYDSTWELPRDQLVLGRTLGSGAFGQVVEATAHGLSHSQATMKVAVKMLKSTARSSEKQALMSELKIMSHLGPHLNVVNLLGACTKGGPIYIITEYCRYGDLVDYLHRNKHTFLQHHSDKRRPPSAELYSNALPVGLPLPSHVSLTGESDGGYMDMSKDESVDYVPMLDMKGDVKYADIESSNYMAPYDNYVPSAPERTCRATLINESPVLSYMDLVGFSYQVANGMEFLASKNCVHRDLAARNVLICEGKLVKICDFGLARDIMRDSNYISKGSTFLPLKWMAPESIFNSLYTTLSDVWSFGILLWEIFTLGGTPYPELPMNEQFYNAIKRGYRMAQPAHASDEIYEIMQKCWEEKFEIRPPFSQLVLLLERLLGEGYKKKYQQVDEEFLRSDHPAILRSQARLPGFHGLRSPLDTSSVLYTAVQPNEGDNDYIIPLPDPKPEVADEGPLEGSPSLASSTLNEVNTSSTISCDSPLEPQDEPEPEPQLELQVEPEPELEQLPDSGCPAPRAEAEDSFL

Turning to `CCn1c(N)c(C(=O)NC)c(=O)c2ccc(-c3ccc(CC(=O)NCC4COCCN4C4CC4)cc3)nc21` (stereo not shown) [compound 33, 2-amino-7-[4-(2-{[(4-cyclopropylmorpholin-3-yl)methyl]amino}-2-oxoethyl)phenyl]-1-ethyl-N-methyl-4-oxo-1,4-dihydro-1,8-naphthyridine-3-carboxamide], the IC50 amounted to 0.0047 µM in assay [1] and 0.056 µM in assay [2].

Take `CCN1CC(F)(F)C[C@H]1CNC(=O)Cc1ccc(-c2ccc3c(=O)c(C(=O)NC)c(N)n(CC)c3n2)cc1` [compound 24, 2-amino-1-ethyl-7-{4-[2-({[(2S)-1-ethyl-4,4-difluoropyrrolidin-2-yl]methyl}-amino)-2-oxoethyl]phenyl}-N-methyl-4-oxo-1,4-dihydro-1,8-naphthyridine-3-carboxamide]: the IC50 in assay [1] turned out to be 0.002 µM; in assay [2], 0.19 µM.

These data come from patent US8436011B2, “Pyridinopyridinone derivatives, preparation thereof and therapeutic use thereof” (Sanofi, priority 2008, dated 2013).
